In assay [1] the test system is TLR2 induced IL-6 in peripheral blood mononuclear cells (PBMCs). Briefly: PBMC TLR2 Induced IL-6 Assay. It counts as cell-based, human. Conditions: read-out: Cell IC50. The procedure, abridged:
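IL-6 ELISA of supernatants after a 5 h challenge with the TLR2 agonist lipoteichoic acid (10 μg/ml). Before stimulation, human PBMCs (250000 cells/well; RPMI, 10% heat-inactivated FCS) received compound for 30 min at 37° C. Values given as IC50 or EC50.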

Another assay has as its target IRAK4 (Homo sapiens (Human), UniProt Q9NWZ3). Briefly: IRAK4 Inhibition Assay. It counts as biochemical. Particulars: ATP 500 μM; IRAK4 0.6 nM; 60 min at room temperature. As to the method:
The assays were performed in U-bottom 384-well plates. […] The reaction was initiated by the combination of IRAK4 with substrates and test compounds. The reaction was incubated at room temperature for 60 min. and terminated by adding 45 μL of 35 mM EDTA to each sample. The reaction mixture was analyzed on the Caliper LABCHIP® 3000 (Caliper, Hopkinton, Mass.) by electrophoretic separation of the fluorescent substrate and phosphorylated product.

Setting [2] is: Homo sapiens, PBMC, 5 h, human PBMCs, 10 μg/ml lipoteichoic acid for 5 hours, IL-6 by ELISA, value without asterisk.
The mark [3] stands for this setting: human PBMCs, 10 μg/ml lipoteichoic acid for 5 hours, IL-6 by ELISA, value without asterisk.

Where two headings read alike, the source gives them in different places.

For orientation: IC50 means the concentration at which inhibition is half-maximal.

IRAK4, sequence (Q9NWZ3 whole entry, species assumed): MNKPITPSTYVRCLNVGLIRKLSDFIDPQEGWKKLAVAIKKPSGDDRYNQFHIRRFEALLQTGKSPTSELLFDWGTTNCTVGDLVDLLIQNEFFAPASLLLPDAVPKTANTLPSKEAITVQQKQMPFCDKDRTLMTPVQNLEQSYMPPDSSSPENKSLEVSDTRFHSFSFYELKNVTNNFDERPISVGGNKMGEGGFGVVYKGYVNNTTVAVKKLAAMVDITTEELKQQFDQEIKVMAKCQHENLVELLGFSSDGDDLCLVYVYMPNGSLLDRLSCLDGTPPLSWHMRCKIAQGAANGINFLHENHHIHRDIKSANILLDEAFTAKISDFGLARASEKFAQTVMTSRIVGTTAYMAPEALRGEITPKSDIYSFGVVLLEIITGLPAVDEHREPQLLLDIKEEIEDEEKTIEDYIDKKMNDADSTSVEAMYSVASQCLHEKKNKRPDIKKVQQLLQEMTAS

For `O=C(NC[C@@H](F)CO)c1cnc(Nc2ccc3ncsc3c2)cc1NC1CCCC1` [Example 150], the half-maximal inhibitory concentration (IC50) is 395 nM in assay [1] (setting [2]) and 5.9 nM at IRAK4.

On to `O=C(NCCN1CCCC1)c1cnc(Nc2ccc3ncsc3c2)cc1NC1CCCC1` [Example 151], for which the IC50 worked out at 191 nM in assay [1] (setting [2]) and 4.2 nM at IRAK4.

Regarding `CC(=O)NCCNC(=O)c1cnc(Nc2ccc3ncsc3c2)cc1NC1CCCC1` [Example 152], the concentration for half-maximal inhibition (IC50) in assay [1] (setting [2]) is 596 nM; on IRAK4 it was 7.5 nM.

On to `O=C(NCCN1CCOCC1)c1cnc(Nc2ccc3ncsc3c2)cc1NC1CCCC1` [Example 154], for which the IC50 turned out to be 535 nM in assay [1] (setting [2]) and 6.8 nM on IRAK4.

As for `O=C(Nc1ccc(Cn2cncn2)cc1)c1cnc(Nc2ccc3ncsc3c2)cc1NC1CCCC1` [Example 156], the IC50 in assay [1] (setting [2]) came to 502 nM; at IRAK4 it was 9.9 nM.

Regarding `O=C(NC1CCC(O)CC1)c1cnc(Nc2ccc3ncsc3c2)cc1NC1CCCC1` (stereo not shown) [Example 157], the IC50 in assay [1] (setting [2]) worked out at 836 nM; at IRAK4 it was 4.2 nM.

As for `CCCNc1cc(Nc2ccc3ncsc3c2)ncc1C(=O)NC[C@@H](F)C(C)(C)O` [Example 159], the IC50 in assay [1] (setting [2]) stood at 146 nM; on IRAK4 it was 3.2 nM.

As to `CCCCNc1cc(Nc2ccc3ncsc3c2)ncc1C(=O)NC[C@@H](F)C(C)(C)O` [Example 160], the results for the IC50 (in assay [1] (setting [2]); at IRAK4) were 109 nM and 4.8 nM, respectively.

Regarding `CC(C)(O)[C@H](F)CNC(=O)c1cnc(Nc2ccc3ncsc3c2)cc1NCCO` [Example 161], the IC50 was 577 nM in assay [1] (setting [2]) and 17.9 nM on IRAK4.

`CC(C)CNc1cc(Nc2ccc3ncsc3c2)ncc1C(=O)NC[C@@H](F)C(C)(C)O` [Example 162]: the IC50 in assay [1] (setting [2]) was found to be 48 nM; at IRAK4, 3.6 nM.

Consider `CC(C)(O)[C@H](F)CNC(=O)c1cnc(Nc2ccc3ncsc3c2)cc1NCCN1CCOCC1` [Example 164], for which the results for the IC50 (in assay [1] (setting [2]); on IRAK4) were 388 nM and 34.9 nM, respectively.

As for `CC(C)(O)[C@H](F)CNC(=O)c1cnc(Nc2ccc3ncsc3c2)cc1NCCc1ccccc1` [Example 165], the figures for the IC50 (in assay [1] (setting [2]); at IRAK4) were 386 nM and 9 nM, respectively.

For `Cc1ccccc1CNc1cc(Nc2ccc3ncsc3c2)ncc1C(=O)NC[C@@H](F)C(C)(C)O` [Example 166], the IC50 stood at 266 nM in assay [1] (setting [2]) and 8.4 nM at IRAK4.

In the case of `CC(C)(O)[C@H](F)CNC(=O)c1cnc(Nc2ccc3ncsc3c2)cc1NCc1ccc(Cl)cc1` [Example 167], the half-inhibitory concentration (IC50) amounted to 526 nM in assay [1] (setting [2]) and 9.8 nM on IRAK4.

`COc1ccc(CNc2cc(Nc3ccc4ncsc4c3)ncc2C(=O)NC[C@@H](F)C(C)(C)O)cc1` [Example 168]: the figures for the IC50 (in assay [1] (setting [2]); on IRAK4) were 565 nM and 13.4 nM, respectively.

Regarding `CC1(O)CCC(NC(=O)c2cnc(Nc3ccc4ncsc4c3)cc2NC2CC2)CC1` (stereo not shown) [Example 169, 6-(benzo[d]thiazol-6-ylamino)-4-(cyclopropylamino)-N-(4-hydroxy-4-methylcyclohexyl)nicotinamide], the results for the IC50 (in assay [1] (setting [2]); at IRAK4) were 480 nM and 2.8 nM, respectively.

In the case of `CC(C)(O)C(F)(F)CNC(=O)c1cnc(Nc2ccc3ncsc3c2)cc1NC1CC1` [Example 170], the IC50 in assay [1] (setting [2]) is 477 nM; on IRAK4 it was 5.9 nM.

`CC(C)Nc1cc(Nc2ccc3ncsc3c2)ncc1C(=O)NCC(F)(F)C(C)(C)O` [Example 171]: the half-inhibitory concentration (IC50) in assay [1] (setting [2]) was 571 nM; on IRAK4 it was 4.3 nM.

In the case of `CC(C)Nc1cc(Nc2ccc3ncsc3c2)ncc1C(=O)NC1CCCC(CO)C1` (stereo not shown) [Example 172], the half-inhibitory concentration (IC50) in assay [1] (setting [3]) worked out at 300 nM; on IRAK4, 6.7 nM.

For `CC(C)Nc1cc(Nc2ccc3ncsc3c2)ncc1C(=O)NC1CCCC(CO)C1` (stereo not shown) [Example 173], the IC50 in assay [1] (setting [3]) turned out to be 696 nM; at IRAK4, 9.3 nM.

Regarding `CC(C)Nc1cc(Nc2ccc3ncsc3c2)ncc1C(=O)NCC[C@@H](C)NC(=O)OC(C)(C)C` [Example 175], the IC50 stood at 402 nM in assay [1] (setting [2]) and 5.1 nM at IRAK4.

In the case of `CC(C)Nc1cc(Nc2ccc3ncsc3c2)ncc1C(=O)NC12CCC(O)(CC1)C2` [Example 176], the IC50 was found to be 489 nM in assay [1] (setting [2]) and 10.3 nM on IRAK4.

For `CC(C)NC(=O)N[C@H](C)CCNC(=O)c1cnc(Nc2ccc3ncsc3c2)cc1NC(C)C` [Example 177], the IC50 in assay [1] (setting [2]) was 191 nM; on IRAK4, 1.7 nM.

Consider `CC(=O)N[C@@H](C)CCNC(=O)c1cnc(Nc2ccc3ncsc3c2)cc1NC(C)C` [Example 178], for which the values for the half-inhibitory concentration (IC50) (in assay [1] (setting [2]); at IRAK4) were 405 nM and 13.8 nM, respectively.

As to `CC(C)Nc1cc(Nc2ccc3ncsc3c2)ncc1C(=O)NCC[C@H](C)NC(=O)CC(C)(C)O` [Example 179], the IC50 was 532 nM in assay [1] (setting [2]) and 16.2 nM at IRAK4.

Regarding `CC(=O)N[C@H](C)CCNC(=O)c1cnc(Nc2ccc3ncsc3c2)cc1NC(C)C` [Example 180], the values for the IC50 (in assay [1] (setting [2]); on IRAK4) were 415 nM and 3.7 nM, respectively.

Take `CC(C)NC(=O)N[C@@H](C)CCNC(=O)c1cnc(Nc2ccc3ncsc3c2)cc1NC(C)C` [Example 181]: the IC50 in assay [1] (setting [2]) came out at 453 nM; at IRAK4 it was 7.6 nM.

On to `CC(C)Nc1cc(Nc2ccc3ncsc3c2)ncc1C(=O)NCC[C@@H](C)NC(=O)OC(C)C` [Example 183], for which the figures for the IC50 (in assay [1] (setting [2]); at IRAK4) were 436 nM and 3.9 nM, respectively.

Take `CC(C)Nc1cc(Nc2ccc3ncsc3c2)ncc1C(=O)NCC[C@@H](C)NC(=O)C1CCCC1` [Example 184]: the IC50 in assay [1] (Homo sapiens, PBMC, 5 h) was 215 nM; at IRAK4, 1.9 nM.

Regarding `CC(C)Nc1cc(Nc2ccc3ncsc3c2)ncc1C(=O)NCC[C@@H](C)NC(=O)c1ccccc1` [Example 185], the IC50 in assay [1] (setting [2]) stood at 620 nM; at IRAK4, 4.4 nM.

Regarding `CC(C)Nc1cc(Nc2ccc3ncsc3c2)ncc1C(=O)NCC[C@@H](C)NC(=O)[C@@H]1CCC(F)(F)C1` [Example 186], the half-inhibitory concentration (IC50) in assay [1] (setting [2]) is 361 nM; at IRAK4, 2.4 nM.

In the case of `CC(C)Nc1cc(Nc2ccc3ncsc3c2)ncc1C(=O)NCC[C@@H](C)NC(=O)[C@@H]1CC[C@@H](F)C1` [Example 187], the half-maximal inhibitory concentration (IC50) came out at 324 nM in assay [1] (setting [2]) and 2.7 nM on IRAK4.

As to `CC(C)Nc1cc(Nc2ccc3ncsc3c2)ncc1C(=O)NCC[C@@H](C)NC(=O)CC1CCCCC1(F)F` (stereo partly shown) [Example 188], the 50% inhibitory concentration (IC50) in assay [1] (setting [2]) is 508 nM; at IRAK4 it was 2.5 nM.

In the case of `CC(C)Nc1cc(Nc2ccc3ncsc3c2)ncc1C(=O)NCC[C@@H](C)NC(=O)CC1CCOCC1` [Example 189], the IC50 in assay [1] (setting [2]) is 300 nM; at IRAK4, 3.4 nM.

Consider `CC(C)Nc1cc(Nc2ccc3ncsc3c2)ncc1C(=O)NCC[C@@H](C)NC(=O)CCCC(C)(C)O` [Example 190], for which the results for the IC50 (in assay [1] (setting [2]); on IRAK4) were 250 nM and 3.3 nM, respectively.

For `CC(C)Nc1cc(Nc2ccc3ncsc3c2)ncc1C(=O)NCC[C@@H](C)NC(=O)CCCCC(C)(C)O` [Example 191], the IC50 in assay [1] (setting [2]) is 451 nM; on IRAK4, 3.4 nM.

For `CC(C)Nc1cc(Nc2ccc3ncsc3c2)ncc1C(=O)NCC[C@@H](C)NC(=O)CN(C)C` [Example 192], the IC50 came to 264 nM in assay [1] (setting [2]) and 6.1 nM on IRAK4.

Consider `CC(C)Nc1cc(Nc2ccc3ncsc3c2)ncc1C(=O)NCC[C@@H](C)NC(=O)Cn1ccnn1` [Example 193], for which the IC50 in assay [1] (setting [2]) is 345 nM; at IRAK4 it was 3.1 nM.

With `CC(C)Nc1cc(Nc2ccc3ncsc3c2)ncc1C(=O)NCC[C@@H](C)NC(=O)CC1CCCOC1` (stereo partly shown) [Example 194], the IC50 in assay [1] (setting [2]) stood at 208 nM; on IRAK4 it was 2.5 nM.

For `CC(C)Nc1cc(Nc2ccc3ncsc3c2)ncc1C(=O)N[C@H]1CC[C@H](C(=O)NC(C)C)CC1` [Example 195], the IC50 in assay [1] (setting [2]) turned out to be 162 nM; at IRAK4, 2 nM.

For the molecule `CC(C)Nc1cc(Nc2ccc3ncsc3c2)ncc1C(=O)N[C@H]1CC[C@H](C(=O)NCC(C)(C)O)CC1` [Example 196], the results for the IC50 (in assay [1] (setting [2]); at IRAK4) were 325 nM and 3.5 nM, respectively.

`CC(C)Nc1cc(Nc2ccc3ncsc3c2)ncc1C(=O)NCC[C@@H](C)NC(=O)[C@@H]1CC[C@H](F)C1` [Example 198]: the concentration for half-maximal inhibition (IC50) in assay [1] (setting [2]) turned out to be 307 nM; on IRAK4, 2.6 nM.

Turning to `CC(=O)NCCCNC(=O)c1cnc(Nc2ccc3ncsc3c2)cc1NC(C)C` [Example 199], the results for the IC50 (in assay [1] (setting [2]); at IRAK4) were 551 nM and 8.4 nM, respectively.

As for `CC(=O)N[C@H]1CC[C@H](NC(=O)c2cnc(Nc3ccc4ncsc4c3)cc2NC(C)C)CC1` [Example 200], the values for the IC50 (in assay [1] (setting [2]); on IRAK4) were 94 nM and 2.2 nM, respectively.

On to `CC(C)Nc1cc(Nc2ccc3ncsc3c2)ncc1C(=O)N[C@H]1CC[C@H](NC(=O)c2ccccn2)CC1` [Example 201], for which the results for the IC50 (in assay [1] (setting [2]); on IRAK4) were 499 nM and 4.5 nM, respectively.

With `CC(C)Nc1cc(Nc2ccc3ncsc3c2)ncc1C(=O)N[C@H]1CC[C@H](NC(=O)c2cccnc2)CC1` [Example 202], the 50% inhibitory concentration (IC50) in assay [1] (setting [2]) is 156 nM; at IRAK4, 2.4 nM.

Regarding `CC(C)Nc1cc(Nc2ccc3ncsc3c2)ncc1C(=O)N[C@H]1CC[C@H](N)CC1` [Example 203], the results for the IC50 (in assay [1] (setting [2]); at IRAK4) were 307 nM and 3.4 nM, respectively.

As to `CC(C)Nc1cc(Nc2ccc3ncsc3c2)ncc1C(=O)N[C@H]1CC[C@H](NS(C)(=O)=O)CC1` [Example 204], the results for the concentration for half-maximal inhibition (IC50) (in assay [1] (setting [2]); at IRAK4) were 252 nM and 2.6 nM, respectively.

For the molecule `CC(C)Nc1cc(Nc2ccc3ncsc3c2)ncc1C(=O)N[C@H]1CC[C@H](NC(=O)N2CCOCC2)CC1` [Example 205], the IC50 in assay [1] (setting [2]) worked out at 169 nM; at IRAK4, 1.8 nM.

Take `CC(C)NC(=O)N[C@H]1CC[C@H](NC(=O)c2cnc(Nc3ccc4ncsc4c3)cc2NC(C)C)CC1` [Example 206]: the half-inhibitory concentration (IC50) in assay [1] (setting [2]) was 139 nM; on IRAK4, 2.1 nM.

For the origin of these results see patent US9546153B2, “Bicyclic heterocycle substituted pyridyl compounds useful as kinase modulators” (BRISTOL-MYERS SQUIBB COMPANY, priority 2012, dated 2017).
